Laboratory results as given in patent US20130035321A1, “COMPOUNDS FOR THE TREATMENT OF OCULAR CANCER” (AnalytiCon Discovery GmbH, priority 2009, published 2013).
Entries after “also recorded” stand apart in the source; their conditions may differ. Where two headings read alike, the source gives them in different places.

Columns and labels:
Y79 cells [1] = experiment: Cytotoxicity dose response in 384-well plates (Alamar Blue), Y79; format: cell-based, human; conditions: for activity toward Y79 cells below 100 μM: upper limit 100 μM; for IC50: read-out: IC50 toward Y79 cells
Procedure: (§1) Dose response studies were performed in 384-well microtiter plates (#3712, Corning Inc., Corning, N.Y.) according to the following protocol: cells were added in 45 μL medium to the screening plates using Flexdrop. After 72 h incubation was added 5 μL Alamar Blue using Flexdrop. The cells were then incubated for another 24 h, and the fluorescence intensity was read on LEADseeker™ Multimodality Imaging System as previously described. To calculate the IC50 for each compound toward each cell line, the dose response was assessed in duplicate and using 12 point doubling dilutions with 100 μM compound concentration as the upper limit. The dose response curve for each set of data was fitted separately, and the two IC50 values obtained were averaged.
as §1, with “averaged. […] IC50 of 0.1 corresponds to <0.1 μM and IC50 of 100 corresponds to >100 μM.” for “averaged.”

RB355 cells = experiment: Cytotoxicity dose response in 384-well plates (Alamar Blue), RB355; format: cell-based, human; conditions: for activity toward RB355 cells below 100 μM: upper limit 100 μM
Procedure: as §1
as §1, with “averaged. […] IC50 of 0.1 corresponds to <0.1 μM and IC50 of 100 corresponds to >100 μM.” for “averaged.”

stage Vb retinoblastoma = format: in vivo, human
Y79 cells [2] = format: cell-based, human
Y79LUC cells = experiment: Subcutaneous Y79LUC xenograft model of retinoblastoma; format: in vivo, mouse
Procedure: Subcutaneous xenograft experiments were performed at the Memorial Sloan-Kettering Cancer Center Antitumor Assessment Core Facility. Y79LUC cells (10E6) embedded in matrigel (BD Biosciences, San Jose, Calif.) were injected subcutaneously in the right flank of 8-weeks old ICR/SCID male mice. Treatment started when the tumors reached approximately 250 mm^3. The mice were randomized into three groups and two mice per group were treated with either 10% DMSO (v/v) (control group), 1.5 mg/kg ouabain or 15 mg/kg ouabain. Treatment was performed by continuous subcutaneous infusion using osmotic minipumps (#1007D, Alzet, Cupertino, Calif.). Tumor size was measured externally two times a week with a caliper. Body weight of each mouse was monitored as well as other signs of toxicity throughout the treatment period. Bioluminescent imaging of the tumors was performed once a week and prior to sacrifice as follows: mice were anesthetized by isofluorane inhalation and injected with D-luciferin at 50 mg/Kg (Xenogen) intraperitoneally; photonic emission was measured with the In Vivo Imaging System (IVIS 200, Xenogen) with a collection time of 5 seconds.
The therapeutic effect of the drug ouabain in a mouse xenograft model of retinoblastoma was also investigated. Three groups of two 8 weeks old ICR/SCID male mice bearing Y79 tumors implanted in the flank were treated with either vehicle only, 1.5 mg/kg ouabain or 15 mg/kg ouabain. Mice were continuously infused subcutaneously using an osmotic minipump delivery system. […] In comparison, tumors in the vehicle-treated control group continuously grew, necessitating to euthanize the animals at day 19.

[3] = tested on: Y79, RB355, WERI-Rb-1 and C918 ocular cancer cell lines; experiment: Dose response (SAR) of 35 cardenolides in a panel of four ocular cancer cell lines; format: cell-based, human; conditions: panel Y79, RB355, WERI-Rb-1, C918
Procedure: as §1
To explore the structure activity relationship (SAR) within this chemical class a collection of 35 cardenolides and derivatives was constituted. The dose response for each compound toward the ocular cancer cell lines Y79, RB355, WERI-Rb-1 and C918 was then assessed.

Y79 cells [4] = format: cell-based, human; remark: listed apart in the source
[5] = Homo sapiens, read-out: IC50 toward RB355 cells

C=C1/C(=C\C=C2/CCC[C@]3(C)[C@@H]([C@H](C)CCCC(C)(C)O)CC[C@@H]23)C[C@@H](O)C[C@@H]1O [calcitriol]
activity toward Y79 cells below 100 μM (Y79 cells [1]): did not demonstrate any significant activity toward Y79 cells below 100 μM
activity toward RB355 cells below 100 μM (RB355 cells): neither caboplatin or calcitriol had any significant activity below 100 μM

N.N.O=C([O-])C1(C(=O)[O-])CCC1.[Pt+2] [carboplatin]
activity toward Y79 cells below 100 μM (Y79 cells [1]): did not demonstrate any significant activity toward Y79 cells below 100 μM
activity toward RB355 cells below 100 μM (RB355 cells): neither caboplatin or calcitriol had any significant activity below 100 μM

N.N.[Cl][Pt][Cl] [cisplatin]
activity toward Y79 cells below 100 μM (Y79 cells [1]): did not demonstrate any significant activity toward Y79 cells below 100 μM
maximum inhibition toward RB355 cells (RB355 cells; at 100 μM): 65%

C[C@H]1O[C@@H](O[C@H]2[C@@H](O)C[C@H](O[C@H]3[C@@H](O)C[C@H](O[C@H]4CC[C@@]5(C)[C@H](CC[C@@H]6[C@@H]5C[C@@H](O)[C@]5(C)[C@@H](C7=CC(=O)OC7)CC[C@]65O)C4)O[C@@H]3C)O[C@@H]2C)C[C@H](O)[C@@H]1O [digoxin]
exam three weeks after intraarterial infusion (stage Vb retinoblastoma; in vivo): Exam remained stable
exam three weeks after second round of intraarterial infusion (stage Vb retinoblastoma; in vivo): decreased tumor size, fewer vitreous seeds, and resolution of the retinal detachment
exam three weeks after third intraarterial dose (stage Vb retinoblastoma; in vivo): measurable but modest improvement but residual active disease
reexamination after oral treatment (stage Vb retinoblastoma; in vivo, po): progression of disease

COc1cc([C@@H]2c3cc4c(cc3[C@@H](O[C@@H]3O[C@@H]5CO[C@@H](C)O[C@H]5[C@H](O)[C@H]3O)[C@H]3COC(=O)[C@H]23)OCO4)cc(OC)c1O [etoposide]
IC50 (Y79 cells [1]; Homo sapiens, Y79): 11000 nM
IC50 (RB355 cells; [5]): 970 nM
apoptosis (activated Caspase-3) compared to baseline (Y79 cells [2]): induced significant apoptosis

N[C@@H](Cc1ccc(N(CCCl)CCCl)cc1)C(=O)O [melphalan]
response to intraarterial chemotherapy (stage Vb retinoblastoma; three cycles, administered elsewhere before presentation): incomplete response; also recorded: no regression on the main tumor or vitreous seeds

COc1ccc(C2=N[C@@H](c3ccc(Cl)cc3)[C@@H](c3ccc(Cl)cc3)N2C(=O)N2CCNC(=O)C2)c(OC(C)C)c1 [nutlin-3]
IC50 (Y79 cells [1]): 78000 nM
IC50 (RB355 cells; read-out: IC50 toward RB355 cells): 11000 nM

C[C@@H]1O[C@@H](O[C@H]2C[C@@H](O)[C@]3(CO)[C@H]4[C@H](O)C[C@]5(C)[C@@H](C6=CC(=O)OC6)CC[C@]5(O)[C@@H]4CC[C@]3(O)C2)[C@H](O)[C@H](O)[C@H]1O [ouabain]
IC50 (Y79 cells [1]; Homo sapiens, Y79): 650 nM
IC50 (RB355 cells; [5]): 400 nM
tumor burden compared to the control group (Y79LUC cells; 1.5 mg/kg, continuous subcutaneous infusion): seemed to reduce the tumor burden
tumor burden by bioluminescent imaging (Y79LUC cells; 15 mg/kg, continuous subcutaneous infusion by minipump, after 14 days of treatment): complete tumor regression
average tumor size (Y79LUC cells; 15 mg/kg, day 14, caliper): 18 mm^3
toxicity (average body weight, signs of toxicity) (Y79LUC cells; 15 mg/kg, throughout treatment period): did not induce any significant toxicity; also recorded: no signs of toxicity were observed
activity across the panel of ocular cell lines [3]: potent activity across the entire panel of ocular cell lines tested
apoptosis (activated Caspase-3) compared to baseline (Y79 cells [2]): induced significant apoptosis; also recorded: induces apoptosis
effect on Y79 cells in Yo-Pro pilot study (Y79 cells [4]): eradicated Y79 cells

CC[C@]1(O)C[C@H]2CN(CCc3c([nH]c4ccccc34)[C@@](C(=O)OC)(c3cc4c(cc3OC)N(C=O)[C@H]3[C@@](O)(C(=O)OC)[C@H](OC(C)=O)[C@]5(CC)C=CCN6CC[C@]43[C@@H]65)C2)C1 [vincristine]
plateau of inhibition toward Y79 cells (Y79 cells [1]; plateau prevented calculation of IC50): 50%
IC50 (RB355 cells; Homo sapiens, read-out: IC50 toward RB355): 1.6 nM
apoptosis (activated Caspase-3) compared to baseline (Y79 cells [2]): induced significant apoptosis
